The text below walks through data of patent publication US8895504B2, “Amylin derivatives” (priority 2008, dated 2014).

The target of the assay is T1, Amylin 3(a) receptor (human calcitonin receptor (CTa) and RAMP-3) (Homo sapiens, UniProt O60896+P30988).
T1 construct: expressed in transfected cells; host or cells: BHK570 cells, stably transfected with a CRE-luciferase reporter
Nature of the assay: Luciferase assay (III), BHK Amylin 3(a)//CRE-luc cells. It counts as cell-based. The following applies: BHK cells with Amylin 3(a) receptor and CRE luciferase reporter, 4 hours incubation; read-out: Potency Luciferase. An excerpt: It has previously been published (Poyner D R et al 2002, Pharmacological Reviews 54(2) 233-246) that activation of Amylin receptors (coexpression of Calcitonin receptor and receptor activity modifying peptides RAMPs) by Amylin leads to an increase in the intracellular concentration of cAMP. Consequently, transcription is activated at promoters containing multiple copies of the cAMP response element (CRE). It is thus possible to measure Amylin activity by use of a CRE luciferase reporter gene introduced into BHK cells also expressing an Amylin receptor.
2. Construction of an Amylin 3(a)/CRE-luc Cell Line
A BHK570 cell line stably transfected with the human calcitonin receptor (CTa) and a CRE-responsive luciferase reportergene. The cell line was further transfected with RAMP-3, using standard methods. This turns the Calcitonin receptor into an Amylin 3(a) receptor. Methotrexate, Neomycin, and Hygromycin are selection markers for luciferase, the Calcitonin receptor, and RAMP-3, respectively.
3. Amylin Luciferase Assay
To perform activity assays, BHK Amylin 3(a)//CRE-luc cells were seeded in white 96 well culture plates at a density of about 20,000 cells/well. The cells were in 100 μl growth medium (DMEM with 10% FBS, 1% Pen/Strep, 1 mM Na-pyruvate, 250 nM Methotrexate, 500 μg/ml Neomycin, and 400 μg/ml Hygromycin). After incubation overnight at 37° C. and 5% CO2, the growth medium was replaced by 50 μl/well assay medium (DMEM (without phenol red), Glumamax™, 10% FBS, and 10 mM Hepes, pH 7,4). Further, 50 μl/well of standard or sample in assay buffer were added. After 4 hours incubation at 37° C. and 5% CO2, the assay medium with standard or sample were removed and replaced by 100 μl/well PBS. Further, 100 μl/well LucLite™ was added. The plates were sealed and incubated at room temperature for 30 minutes. Finally, luminescence was measured on a TopCounter (Packard) in SPC (single photon counting) mode.

*1 amine or outer side, *2 acyl side, *3 side chain or, on linkers, in order; H or OH if unused. Where a SMILES comes first, the peptide text is derived from it. Bridges are numbered along the chain shown (N, C = ends). Side-chain parts run from the residue outwards. The star is where a group is joined. C20 diacid = O=C(O)CCCCCCCCCCCCCCCCCCC(=O)*; γGlu = O=C(O)[C@H](CCC(=O)[*:2])N[*:1]

T1 sequence (O60896 24-148): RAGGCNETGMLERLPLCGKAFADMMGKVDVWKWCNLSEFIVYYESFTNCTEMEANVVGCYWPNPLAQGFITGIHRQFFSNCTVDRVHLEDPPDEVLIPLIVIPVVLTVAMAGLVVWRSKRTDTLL
T1 sequence (P30988 25-474): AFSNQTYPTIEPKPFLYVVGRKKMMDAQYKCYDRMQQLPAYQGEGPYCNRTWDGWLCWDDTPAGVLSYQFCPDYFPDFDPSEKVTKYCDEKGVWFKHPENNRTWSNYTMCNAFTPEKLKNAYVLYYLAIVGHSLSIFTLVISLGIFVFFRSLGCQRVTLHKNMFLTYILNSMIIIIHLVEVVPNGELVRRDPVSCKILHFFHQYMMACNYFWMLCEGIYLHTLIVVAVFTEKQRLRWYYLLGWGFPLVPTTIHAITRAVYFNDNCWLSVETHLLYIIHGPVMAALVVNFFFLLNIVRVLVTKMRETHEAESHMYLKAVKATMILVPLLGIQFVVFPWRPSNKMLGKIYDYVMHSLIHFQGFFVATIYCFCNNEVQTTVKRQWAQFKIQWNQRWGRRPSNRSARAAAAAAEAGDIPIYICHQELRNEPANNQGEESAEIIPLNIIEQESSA

On to `CC[C@H](C)[C@H](NC(=O)[C@@H]1CCCN1C(=O)CNC(=O)[C@H](Cc1ccccc1)NC(=O)[C@H](CC(N)=O)NC(=O)[C@H](CC(N)=O)NC(=O)[C@H](CO)NC(=O)[C@H](CO)NC(=O)[C@H](Cc1c[nH]cn1)NC(=O)[C@H](Cc1c[nH]cn1)NC(=O)[C@H](CC(C)C)NC(=O)[C@H](Cc1ccccc1)NC(=O)[C@H](CCC(=O)O)NC(=O)[C@H](C)NC(=O)[C@H](CC(C)C)NC(=O)[C@H](CCCNC(=N)N)NC(=O)[C@H](CCC(N)=O)NC(=O)[C@@H](NC(=O)[C@H](C)NC(=O)[C@@H]1CSSC[C@H](NC(=O)[C@H](CCC(=O)O)NC(=O)[C@H](CCCNC(=N)N)NC(=O)[C@H](CCC(=O)O)NC(=O)[C@H](CCC(=O)O)NC(=O)CCCCCCCCCCCCCCCCCCC(=O)O)C(=O)N[C@@H](CC(N)=O)C(=O)N[C@@H]([C@@H](C)O)C(=O)N[C@@H](C)C(=O)N[C@@H]([C@@H](C)O)C(=O)N1)[C@@H](C)O)C(=O)N[C@@H](CC(C)C)C(=O)N1CCC[C@H]1C(=O)N1CCC[C@H]1C(=O)N[C@H](C(=O)N[C@@H](CCC(=O)O)C(=O)N[C@H](C(=O)NCC(=O)N[C@@H](CO)C(=O)N[C@@H](CC(N)=O)C(=O)N[C@H](C(=O)N[C@@H](Cc1ccc(O)cc1)C(N)=O)[C@@H](C)O)C(C)C)[C@@H](C)O` [Example 1, N-alpha-(19-carboxynonadecanoyl)-Glu-Glu-Arg-[Glu1,Glu14,His17,Glu31]-pramlintide] ({C20 diacid}-EERECNTATCATQRLAEFLHHSSNNFGPILPPTEVGSNTY-NH2; disulfide 5-10), for which the EC50 amounted to 0.9 nM.
With `CC[C@H](C)[C@H](NC(=O)[C@@H]1CCCN1C(=O)CNC(=O)[C@H](Cc1ccccc1)NC(=O)[C@H](CC(N)=O)NC(=O)[C@H](CC(=O)O)NC(=O)[C@H](CO)NC(=O)[C@H](CO)NC(=O)[C@H](Cc1c[nH]cn1)NC(=O)[C@H](Cc1c[nH]cn1)NC(=O)[C@H](CC(C)C)NC(=O)[C@H](Cc1ccccc1)NC(=O)[C@H](CC(N)=O)NC(=O)[C@H](C)NC(=O)[C@H](CC(C)C)NC(=O)[C@H](CCCNC(=N)N)NC(=O)[C@H](CCC(N)=O)NC(=O)[C@@H](NC(=O)[C@H](C)NC(=O)[C@@H]1CSSC[C@H](NC(=O)[C@@H](N)CCCCN)C(=O)N[C@@H](CCCCNC(=O)[C@H](CCC(=O)O)NC(=O)[C@H](CCC(=O)O)NC(=O)[C@H](CCC(=O)O)NC(=O)[C@H](CCC(=O)O)NC(=O)CCCCCCCCCCCCCCCCCCC(=O)O)C(=O)N[C@@H]([C@@H](C)O)C(=O)N[C@@H](C)C(=O)N[C@@H]([C@@H](C)O)C(=O)N1)[C@@H](C)O)C(=O)N[C@@H](CC(C)C)C(=O)N1CCC[C@H]1C(=O)N1CCC[C@H]1C(=O)N[C@H](C(=O)N[C@@H](CC(N)=O)C(=O)N[C@H](C(=O)NCC(=O)N[C@@H](CO)C(=O)N[C@@H](CC(N)=O)C(=O)N[C@H](C(=O)N[C@@H](Cc1ccc(O)cc1)C(N)=O)[C@@H](C)O)C(C)C)[C@@H](C)O` [Example 4, N-epsilon3-(19-carboxynonadecanoyl-Glu-Glu-Glu-Glu)-[Lys3,His17,Asp21]-pramlintide] (H-KCK([Glu-Glu-Glu-Glu-C20 diacid])TATCATQRLANFLHHSSDNFGPILPPTNVGSNTY-NH2; disulfide 2-7), the EC50 was 2 nM.
On to `CC[C@H](C)[C@H](NC(=O)[C@@H]1CCCN1C(=O)CNC(=O)[C@H](Cc1ccccc1)NC(=O)[C@H](CC(N)=O)NC(=O)[C@H](CC(N)=O)NC(=O)[C@H](CO)NC(=O)[C@H](CO)NC(=O)[C@H](Cc1c[nH]cn1)NC(=O)[C@H](Cc1c[nH]cn1)NC(=O)[C@H](CC(C)C)NC(=O)[C@H](Cc1ccccc1)NC(=O)[C@H](CC(N)=O)NC(=O)[C@H](C)NC(=O)[C@H](CC(C)C)NC(=O)[C@H](CCCNC(=N)N)NC(=O)[C@H](CCC(N)=O)NC(=O)[C@@H](NC(=O)[C@H](C)NC(=O)[C@@H]1CSSC[C@H](NC(=O)[C@H](CCCCN)NC(=O)CC[C@H](NC(=O)CCCCCCCCCCCCCCCCCCC(=O)O)C(=O)O)C(=O)N[C@@H](CC(N)=O)C(=O)N[C@@H]([C@@H](C)O)C(=O)N[C@@H](C)C(=O)N[C@@H]([C@@H](C)O)C(=O)N1)[C@@H](C)O)C(=O)N[C@@H](CC(C)C)C(=O)N1CCC[C@H]1C(=O)N1CCC[C@H]1C(=O)N[C@H](C(=O)N[C@@H](CC(N)=O)C(=O)N[C@H](C(=O)NCC(=O)N[C@@H](CO)C(=O)N[C@@H](CC(N)=O)C(=O)N[C@H](C(=O)N[C@@H](Cc1ccc(O)cc1)C(N)=O)[C@@H](C)O)C(C)C)[C@@H](C)O` [Example 7, N-alpha-[(S)-4-Carboxy-4-(19-carboxynonadecanoylamino)butyryl]-[His17]-pramlintide] ({C20 diacid-γGlu}-KCNTATCATQRLANFLHHSSNNFGPILPPTNVGSNTY-NH2; disulfide 2-7), for which the EC50 is 0.2 nM.
Consider `CC[C@H](C)[C@H](NC(=O)[C@@H]1CCCN1C(=O)CNC(=O)[C@H](Cc1ccccc1)NC(=O)[C@H](CC(N)=O)NC(=O)[C@H](CC(N)=O)NC(=O)[C@H](CO)NC(=O)[C@H](CO)NC(=O)[C@H](Cc1c[nH]cn1)NC(=O)[C@H](Cc1c[nH]cn1)NC(=O)[C@H](CC(C)C)NC(=O)[C@H](Cc1ccccc1)NC(=O)[C@H](CC(N)=O)NC(=O)[C@H](C)NC(=O)[C@H](CC(C)C)NC(=O)[C@H](CCCNC(=N)N)NC(=O)[C@H](CCC(N)=O)NC(=O)[C@@H](NC(=O)[C@H](C)NC(=O)[C@@H]1CSSC[C@H](NC(=O)[C@H](Cc2c[nH]cn2)NC(=O)[C@H](CCCNC(=N)N)NC(=O)[C@H](Cc2c[nH]cn2)NC(=O)CC[C@H](NC(=O)CCCCCCCCCCCCCCCCCCC(=O)O)C(=O)O)C(=O)N[C@@H](CC(N)=O)C(=O)N[C@@H]([C@@H](C)O)C(=O)N[C@@H](C)C(=O)N[C@@H]([C@@H](C)O)C(=O)N1)[C@@H](C)O)C(=O)N[C@@H](CC(C)C)C(=O)N1CCC[C@H]1C(=O)N1CCC[C@H]1C(=O)N[C@H](C(=O)N[C@@H](CC(N)=O)C(=O)N[C@H](C(=O)NCC(=O)N[C@@H](CO)C(=O)N[C@@H](CC(N)=O)C(=O)N[C@H](C(=O)N[C@@H](Cc1ccc(O)cc1)C(N)=O)[C@@H](C)O)C(C)C)[C@@H](C)O` [Example 72, N-alpha-[(S)-4-Carboxy-4-(19-carboxynonadecanoylamino)butyryl]-His-Arg-[His1,His17]-pramlintide] ({C20 diacid-γGlu}-HRHCNTATCATQRLANFLHHSSNNFGPILPPTNVGSNTY-NH2; disulfide 4-9), for which the EC50 amounted to 0.05 nM.
The value for `CC[C@H](C)[C@H](NC(=O)[C@@H]1CCCN1C(=O)CNC(=O)[C@H](Cc1ccccc1)NC(=O)[C@H](CC(N)=O)NC(=O)[C@H](CC(N)=O)NC(=O)[C@H](CO)NC(=O)[C@H](CO)NC(=O)[C@H](Cc1c[nH]cn1)NC(=O)[C@H](Cc1c[nH]cn1)NC(=O)[C@H](CC(C)C)NC(=O)[C@H](Cc1ccccc1)NC(=O)[C@H](CC(N)=O)NC(=O)[C@H](C)NC(=O)[C@H](CC(C)C)NC(=O)[C@H](CCCNC(=N)N)NC(=O)[C@H](CCC(N)=O)NC(=O)[C@@H](NC(=O)[C@H](C)NC(=O)[C@@H]1CSSC[C@H](NC(=O)[C@H](CCCNC(=N)N)NC(=O)[C@H](CCCCN)NC(=O)[C@H](CCC(=O)O)NC(=O)CCCCCCCCCCCCCCCCCCC(=O)O)C(=O)N[C@@H](CC(N)=O)C(=O)N[C@@H]([C@@H](C)O)C(=O)N[C@@H](C)C(=O)N[C@@H]([C@@H](C)O)C(=O)N1)[C@@H](C)O)C(=O)N[C@@H](CC(C)C)C(=O)N1CCC[C@H]1C(=O)N1CCC[C@H]1C(=O)N[C@H](C(=O)N[C@@H](CC(N)=O)C(=O)N[C@H](C(=O)NCC(=O)N[C@@H](CO)C(=O)N[C@@H](CC(N)=O)C(=O)N[C@H](C(=O)N[C@@H](Cc1ccc(O)cc1)C(N)=O)[C@@H](C)O)C(C)C)[C@@H](C)O` [Example 8, N-alpha-[19-carboxynonadecanoyl]-Glu-Lys-[Arg1,His17]-pramlintide] ({C20 diacid}-EKRCNTATCATQRLANFLHHSSNNFGPILPPTNVGSNTY-NH2; disulfide 4-9) was 0.07 nM.
